Measured values taken from paper PMC8744458 (Beilstein Journal of Organic Chemistry, 2022).
Entries after “also recorded” stand apart in the source; their conditions may differ. No end group written: not given here.

What was measured:
[1] = on-resin intramolecular Suzuki-Miyaura biaryl stapling (i,i+4) between 6- or 7-bromo-Trp and aryl boronic acid/Bpin side chain; Pd2(dba)3 0.2 eq, sSPhos 0.4 eq, KF 4 eq, microwave 120 C 30 min; then TFA/TIS/H2O cleavage; settings: the molecule shown is the open-chain precursor, DME/EtOH/H2O 9:9:2, 16.7 mM, 0.5 h
[2] = not given; remark: listed apart in the source
[3] = not given; remark: listed apart in the source
Proteinase K = Proteinase K (2.5 µg mL−1) in Na2HPO4 buffer (100 mM, pH 7.4); settings: 25 °C, up to 120 min
β-catenin = biological target: T1, β-catenin (Homo sapiens, UniProt P35222); assay: direct fluorescence polarisation
T1 chain: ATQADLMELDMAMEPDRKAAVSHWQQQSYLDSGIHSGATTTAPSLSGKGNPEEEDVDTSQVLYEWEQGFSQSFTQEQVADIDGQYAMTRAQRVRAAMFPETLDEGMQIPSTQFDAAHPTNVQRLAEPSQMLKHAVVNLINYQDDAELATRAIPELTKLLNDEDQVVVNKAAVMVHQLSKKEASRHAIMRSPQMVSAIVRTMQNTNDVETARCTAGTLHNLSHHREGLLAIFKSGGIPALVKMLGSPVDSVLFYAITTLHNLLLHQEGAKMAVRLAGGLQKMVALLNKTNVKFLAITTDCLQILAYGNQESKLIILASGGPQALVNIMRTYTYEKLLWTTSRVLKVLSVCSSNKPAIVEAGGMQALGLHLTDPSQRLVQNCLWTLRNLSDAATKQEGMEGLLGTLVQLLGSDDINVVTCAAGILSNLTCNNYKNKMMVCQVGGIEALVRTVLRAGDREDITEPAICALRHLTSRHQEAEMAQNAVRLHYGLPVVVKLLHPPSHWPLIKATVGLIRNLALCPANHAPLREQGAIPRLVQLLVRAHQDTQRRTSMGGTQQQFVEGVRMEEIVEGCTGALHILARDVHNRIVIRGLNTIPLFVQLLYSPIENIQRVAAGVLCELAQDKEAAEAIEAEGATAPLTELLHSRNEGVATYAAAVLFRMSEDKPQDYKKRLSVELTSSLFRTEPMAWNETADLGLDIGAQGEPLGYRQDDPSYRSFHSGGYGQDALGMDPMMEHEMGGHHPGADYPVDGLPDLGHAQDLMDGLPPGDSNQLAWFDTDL

Question: Which ring closure, overall yield ([1]; 27-membered ring) does the source give for CC[C@H](C)[C@H](NC(=O)[C@H](Cc1c[nH]c2cc(Br)ccc12)NC(=O)[C@H](CCC(=O)OC(C)(C)C)NC(=O)[C@@H]1CCCN1C(=O)[C@H](CC(=O)NC(c1ccccc1)(c1ccccc1)c1ccccc1)NC(=O)[C@H](CCC(=O)OC(C)(C)C)NC(C)=O)C(=O)N[C@@H](CC(C)C)C(=O)N[C@@H](CC(=O)OC(C)(C)C)C(=O)N[C@@H](CCNC(=O)c1ccc(B(O)O)cc1)C(=O)N[C@@H](Cc1cn(C(c2ccccc2)(c2ccccc2)c2ccccc2)cn1)C(=O)N[C@H](C(=O)N[C@@H](CCC(=O)NC(c1ccccc1)(c1ccccc1)c1ccccc1)C(=O)N[C@@H](CCCNC(=N)NS(=O)(=O)c1c(C)c(C)c2c(c1C)CC(C)(C)O2)C(=O)N[C@H](C(=O)N[C@@H](CCSC)C(N)=O)C(C)C)C(C)C here?
Answer: Its ring closure, overall yield is 8%.

Question: For CC[C@H](C)[C@H](NC(=O)[C@H](Cc1c[nH]c2c(Br)cccc12)NC(=O)[C@H](CCC(=O)OC(C)(C)C)NC(=O)[C@@H]1CCCN1C(=O)[C@H](CC(=O)NC(c1ccccc1)(c1ccccc1)c1ccccc1)NC(=O)[C@H](CCC(=O)OC(C)(C)C)NC(C)=O)C(=O)N[C@@H](CC(C)C)C(=O)N[C@@H](CC(=O)OC(C)(C)C)C(=O)N[C@@H](CCCCNC(=O)CCc1ccc(B(O)O)cc1)C(=O)N[C@@H](Cc1cn(C(c2ccccc2)(c2ccccc2)c2ccccc2)cn1)C(=O)N[C@H](C(=O)N[C@@H](CCC(=O)NC(c1ccccc1)(c1ccccc1)c1ccccc1)C(=O)N[C@@H](CCCNC(=N)NS(=O)(=O)c1c(C)c(C)c2c(c1C)CC(C)(C)O2)C(=O)N[C@H](C(=O)N[C@@H](CCSC)C(N)=O)C(C)C)C(C)C, which ring closure, overall yield ([1]; 30-membered ring) is on record?
Answer: Its ring closure, overall yield is 14%.

Question: For CC[C@H](C)[C@H](NC(=O)[C@H](Cc1c[nH]c2cc(Br)ccc12)NC(=O)[C@H](CCC(=O)OC(C)(C)C)NC(=O)[C@@H]1CCCN1C(=O)[C@H](CC(=O)NC(c1ccccc1)(c1ccccc1)c1ccccc1)NC(=O)[C@H](CCC(=O)OC(C)(C)C)NC(C)=O)C(=O)N[C@@H](CC(C)C)C(=O)N[C@@H](CC(=O)OC(C)(C)C)C(=O)N[C@@H](CCCNC(=O)c1ccc(B(O)O)cc1)C(=O)N[C@@H](Cc1cn(C(c2ccccc2)(c2ccccc2)c2ccccc2)cn1)C(=O)N[C@H](C(=O)N[C@@H](CCC(=O)NC(c1ccccc1)(c1ccccc1)c1ccccc1)C(=O)N[C@@H](CCCNC(=N)NS(=O)(=O)c1c(C)c(C)c2c(c1C)CC(C)(C)O2)C(=O)N[C@H](C(=O)N[C@@H](CCSC)C(N)=O)C(C)C)C(C)C, which ring closure, overall yield ([1]; 28-membered ring) is on record?
Answer: The ring closure, overall yield was 8%.

Question: Which ring closure, overall yield ([1]; 24-membered ring) does the source give for CC[C@H](C)[C@H](NC(=O)[C@H](Cc1c[nH]c2cc(Br)ccc12)NC(=O)[C@H](CCC(=O)OC(C)(C)C)NC(=O)[C@@H]1CCCN1C(=O)[C@H](CC(=O)NC(c1ccccc1)(c1ccccc1)c1ccccc1)NC(=O)[C@H](CCC(=O)OC(C)(C)C)NC(C)=O)C(=O)N[C@@H](CC(C)C)C(=O)N[C@@H](CC(=O)OC(C)(C)C)C(=O)N[C@@H](Cc1ccc(B2OC(C)(C)C(C)(C)O2)cc1)C(=O)N[C@@H](Cc1cn(C(c2ccccc2)(c2ccccc2)c2ccccc2)cn1)C(=O)N[C@H](C(=O)N[C@@H](CCC(=O)NC(c1ccccc1)(c1ccccc1)c1ccccc1)C(=O)N[C@@H](CCCNC(=N)NS(=O)(=O)c1c(C)c(C)c2c(c1C)CC(C)(C)O2)C(=O)N[C@H](C(=O)N[C@@H](CCSC)C(N)=O)C(C)C)C(C)C here?
Answer: The ring closure, overall yield was 4%.

Question: With CC[C@H](C)[C@H](NC(=O)[C@H](Cc1c[nH]c2cc(Br)ccc12)NC(=O)[C@H](CCC(=O)OC(C)(C)C)NC(=O)[C@@H]1CCCN1C(=O)[C@H](CC(=O)NC(c1ccccc1)(c1ccccc1)c1ccccc1)NC(=O)[C@H](CCC(=O)OC(C)(C)C)NC(C)=O)C(=O)N[C@@H](CC(C)C)C(=O)N[C@@H](CC(=O)OC(C)(C)C)C(=O)N[C@@H](CCCCNC(=O)c1ccc(B(O)O)cc1)C(=O)N[C@@H](Cc1cn(C(c2ccccc2)(c2ccccc2)c2ccccc2)cn1)C(=O)N[C@H](C(=O)N[C@@H](CCC(=O)NC(c1ccccc1)(c1ccccc1)c1ccccc1)C(=O)N[C@@H](CCCNC(=N)NS(=O)(=O)c1c(C)c(C)c2c(c1C)CC(C)(C)O2)C(=O)N[C@H](C(=O)N[C@@H](CCSC)C(N)=O)C(C)C)C(C)C as the molecule, how does the ring closure, overall yield ([1]; 29-membered ring) read?
Answer: Its ring closure, overall yield is 10%.

Question: With Ac-ENPESILDEHVQRVM-NH2 as the molecule, how does the [θ]222 (deg cm2 dmol-1) read?
Answer: Its [θ]222 (deg cm2 dmol-1) is -42900.

Question: And the θ222 [2]?
Answer: Its θ222 is -4.29 mdeg.

Question: What about the MRE (deg cm2 dmol-1) [3] of the same molecule?
Answer: Its MRE (deg cm2 dmol-1) is -2860.

Question: With CC[C@H](C)[C@H](NC(=O)[C@H](Cc1c[nH]c2c(Br)cccc12)NC(=O)[C@H](CCC(=O)OC(C)(C)C)NC(=O)[C@@H]1CCCN1C(=O)[C@H](CC(=O)NC(c1ccccc1)(c1ccccc1)c1ccccc1)NC(=O)[C@H](CCC(=O)OC(C)(C)C)NC(C)=O)C(=O)N[C@@H](CC(C)C)C(=O)N[C@@H](CC(=O)OC(C)(C)C)C(=O)N[C@@H](CCNC(=O)c1ccc(B(O)O)cc1)C(=O)N[C@@H](Cc1cn(C(c2ccccc2)(c2ccccc2)c2ccccc2)cn1)C(=O)N[C@H](C(=O)N[C@@H](CCC(=O)NC(c1ccccc1)(c1ccccc1)c1ccccc1)C(=O)N[C@@H](CCCNC(=N)NS(=O)(=O)c1c(C)c(C)c2c(c1C)CC(C)(C)O2)C(=O)N[C@H](C(=O)N[C@@H](CCSC)C(N)=O)C(C)C)C(C)C as the molecule, how does the ring closure, overall yield ([1]; 26-membered ring) read?
Answer: Its ring closure, overall yield is 9%.

Question: Which ring closure, overall yield ([1]; 28-membered ring) does the source give for CC[C@H](C)[C@H](NC(=O)[C@H](Cc1c[nH]c2c(Br)cccc12)NC(=O)[C@H](CCC(=O)OC(C)(C)C)NC(=O)[C@@H]1CCCN1C(=O)[C@H](CC(=O)NC(c1ccccc1)(c1ccccc1)c1ccccc1)NC(=O)[C@H](CCC(=O)OC(C)(C)C)NC(C)=O)C(=O)N[C@@H](CC(C)C)C(=O)N[C@@H](CC(=O)OC(C)(C)C)C(=O)N[C@@H](CCCCNC(=O)c1ccc(B(O)O)cc1)C(=O)N[C@@H](Cc1cn(C(c2ccccc2)(c2ccccc2)c2ccccc2)cn1)C(=O)N[C@H](C(=O)N[C@@H](CCC(=O)NC(c1ccccc1)(c1ccccc1)c1ccccc1)C(=O)N[C@@H](CCCNC(=N)NS(=O)(=O)c1c(C)c(C)c2c(c1C)CC(C)(C)O2)C(=O)N[C@H](C(=O)N[C@@H](CCSC)C(N)=O)C(C)C)C(C)C here?
Answer: The ring closure, overall yield was 11%.

Question: What does the source list for “Ac-Glu-Asn-Pro-Glu-Trp-Ile-Leu-Asp-Lys-His-Val-Gln-Arg-Val-Met-NH2 (Trp and Lys drawn as structures, side chains cross-linked by the 7-aryl-Trp staple)”?
Answer: cleaved bond (Proteinase K): Gln-Arg; not cleaved (Proteinase K): not hydrolysed after leucine within 120 min; also recorded: not hydrolysed after lysine within 120 min

Question: For CC[C@H](C)[C@H](NC(=O)[C@H](Cc1c[nH]c2c(Br)cccc12)NC(=O)[C@H](CCC(=O)OC(C)(C)C)NC(=O)[C@@H]1CCCN1C(=O)[C@H](CC(=O)NC(c1ccccc1)(c1ccccc1)c1ccccc1)NC(=O)[C@H](CCC(=O)OC(C)(C)C)NC(C)=O)C(=O)N[C@@H](CC(C)C)C(=O)N[C@@H](CC(=O)OC(C)(C)C)C(=O)N[C@@H](CCCNC(=O)c1ccc(B(O)O)cc1)C(=O)N[C@@H](Cc1cn(C(c2ccccc2)(c2ccccc2)c2ccccc2)cn1)C(=O)N[C@H](C(=O)N[C@@H](CCC(=O)NC(c1ccccc1)(c1ccccc1)c1ccccc1)C(=O)N[C@@H](CCCNC(=N)NS(=O)(=O)c1c(C)c(C)c2c(c1C)CC(C)(C)O2)C(=O)N[C@H](C(=O)N[C@@H](CCSC)C(N)=O)C(C)C)C(C)C, which ring closure, overall yield ([1]; 27-membered ring) is on record?
Answer: Its ring closure, overall yield is 8%.

Question: With CC[C@H](C)[C@H](NC(=O)[C@H](Cc1c[nH]c2c(Br)cccc12)NC(=O)[C@H](CCC(=O)OC(C)(C)C)NC(=O)[C@@H]1CCCN1C(=O)[C@H](CC(=O)NC(c1ccccc1)(c1ccccc1)c1ccccc1)NC(=O)[C@H](CCC(=O)OC(C)(C)C)NC(C)=O)C(=O)N[C@@H](CC(C)C)C(=O)N[C@@H](CC(=O)OC(C)(C)C)C(=O)N[C@@H](Cc1ccc(B2OC(C)(C)C(C)(C)O2)cc1)C(=O)N[C@@H](Cc1cn(C(c2ccccc2)(c2ccccc2)c2ccccc2)cn1)C(=O)N[C@H](C(=O)N[C@@H](CCC(=O)NC(c1ccccc1)(c1ccccc1)c1ccccc1)C(=O)N[C@@H](CCCNC(=N)NS(=O)(=O)c1c(C)c(C)c2c(c1C)CC(C)(C)O2)C(=O)N[C@H](C(=O)N[C@@H](CCSC)C(N)=O)C(C)C)C(C)C as the molecule, how does the ring closure, overall yield ([1]; 23-membered ring) read?
Answer: The ring closure, overall yield was 3%.

Question: With Ac-ENPEWILDKHVQRVM-NH2 as the molecule, how does the cleaved bond (Proteinase K) read?
Answer: The cleaved bond was “Leu-Asp; also recorded: Lys-His; also recorded: Gln-Arg”.

Question: Which Kd (β-catenin) does the source give for PESILDEHVQRVLRT (also: FITC label, site not given here) [fAxWt (FITC-labelled axin CBD peptide) 467-481] here?
Answer: Its Kd is 1190 nM.
